Results from patent US10774080B2, “Pyrimidine compound as JAK kinase inhibitor” (THERAVANCE BIOPHARMA R&D IP, LLC, priority 2017, dated 2020).

Key:
[1] = system: BEAS-2B human lung epithelial cells; format: cell-based; conditions: 48 h
Description: Assay 3: Cytotoxicity Assay A CellTiter-Glo luminescent cell viability/cytotoxicity assay was carried out in BEAS-2B human lung epithelial cells (ATCC) under the normal growth condition. […] On day 1 of the assay, cells were seeded at a 500 cells/well density in white 384-well tissue culture plates (Corning) with 25 μL medium, and were allowed to adhere overnight in the incubator. On day 2 of the assay, 5 μL of medium containing dose-responses of test compounds was added, and incubated at 37° C. for 48 h. 30 μL of CellTiter-Glo detection solution (Promega) was subsequently added, mixed on an orbital shaker for 5 min, and incubated for additional 10 min before being read on the EnVision reader. Luminescence signals were recorded and percent DMSO control values were calculated. For dose-response analysis, percent DMSO control data were plotted vs. compound concentrations to derive dose-response curves by line connecting each data point. […] Results were expressed as the negative logarithm of the CC15 value, pCC15. […] The pCC15 for compound (I) was 5.36.

[2] = system: IL-13 stimulated STAT6 phosphorylation in normal human epidermal keratinocytes; test: Assay 13: inhibition of IL-13 stimulated pSTAT6 in normal human epidermal keratinocytes; format: cell-based; conditions: Keratinocyte, read-out: pIC50 for inhibition of IL-13 induced STAT6 phosphorylation (converted)
Description: Assay 13: Inhibition of IL-13 Stimulated pSTAT6 in Normal Human Epidermal Keratinocytes
The potency of test compounds for inhibition of interleukin-13 (IL-13) stimulated STAT6 phosphorylation was measured in the normal human epidermal keratinocytes (ATCC) using AlphaLisa. Phosphorylated STAT6 was measured via the AlphaLISA SureFire Ultra pSTAT6 (Tyr641) kit (PerkinElmer).
Primary epidermal keratinocytes were cultured in a 37° C., 5% CO2 humidified incubator in dermal cell basal medium (ATCC) supplemented with keratinocyte growth kit (ATCC) and 1× Pen/Strep (Life Technologies). […]
After cytokine stimulation, cells were lysed with 5 ul of 5× AlphaLisa Lysis Buffer (PerkinElmer) containing 1× PhosStop and Complete tablets (Roche). […] Phosphorylated STAT6 was measured via the pSTAT6 AlphaLisa kit (PerkinElmer). […] Luminescence was measured with excitation at 689 nm and emission at […] using an EnVision plate reader (PerkinElmer) under green filtered <100 lux light.
Luminescence signals were recorded and utilized to calculate the percent inhibition values based on DMSO and controls. For dose-response analysis, percent inhibition data were plotted vs. compound concentrations, and IC50 values were determined from a 4-parameter robust fit model with the Prism software.

[3] = system: IL-22 suppressed Filaggrin expression; test: Assay 15: recovery of IL-22 suppressed Filaggrin in normal human epidermal keratinocytes; format: cell-based; conditions: IL-22 50 ng/mL, 4 days
Description: Assay 15: Recovery of IL-22 Suppressed Filaggrin in Normal Human Epidermal Keratinocytes
IL-22 is known to inhibit the expression of terminal differentiation genes, such as Filaggrin. The recovery level of test compound for interleukin-22 (IL-22) suppressed Filaggrin expression was measured in the normal human epidermal keratinocytes (ATCC) using real-time PCR.
Primary epidermal keratinocytes were cultured in a 37° C., 5% CO2 humidified incubator in dermal cell basal medium (ATCC) supplemented with keratinocyte growth kit (ATCC) and 1× Pen/Strep (Life Technologies). Cells were seeded at 5,000 cells/well in BioCoat 96-well plates (Corning) with 100 μl and incubated at 37° C., 5% CO2 for 3 to 4 days till 100% confluency. Then, the medium was removed and replaced with 150 μL of medium containing does-response of test compounds. Compounds were serially diluted in DMSO and then diluted another 1000-fold in media to bring the final DMSO concentration to 0.1%. On day 1 of the assay, cells were incubated with test compounds at 37° C. for 1 h, and followed by the addition of followed by the addition of IL-22 (R&D Systems; final concentration 50 ng/mL) in pre-warmed media (50 μL) for 4 days. […] Fluorescence signals were captured after each cycle. Comparative CT method was used to quantify gene expression with cells without IL-22 and test compounds as baseline control.

[4] = Hanford, minipig, in vivo
Description: Assay 6: Dermal Pharmacokinetics in Hanford Mini-Pig Skin
The objective of this Study was to determine the epidermal, dermal and plasma pharmacokinetics of compound (I) following a 24 hour exposure to intact Hanford mini-pig skin.
Twenty-four hours prior to dosing, the hair was shaved from the back of 10-15 kg Hanford mini-pigs exposing an area of at least 700 cm^2 (about 10% of body surface). At time zero, compound (I) was applied to the back of the mini-pigs at a dose of 25 μL/cm^2. The skin was covered with an adhesive cover to prevent loss of compound to the cage or bedding. Following 24 h exposure, the backs were gently washed with soap and water to remove non-absorbed drug and patted dry. Immediately following this washing, blood was drawn by venipuncture from the mini-pigs. The outer skin (stratum corneum) was then removed by adhesive tape stripping. Upon exposure of the epidermis a 0.5 cm punch biopsy was taken. The epidermis and dermis were quickly separated, weighed and snap frozen. Similar samples were taken at 94 h, and 168 h (7 days) post-dosing in mini-pigs. Epidermis and dermis samples were homogenized in 1:10 (w/v) water using a Covaris ultrasonic homogenizer. Samples were extracted in 3 volumes of acetonitrile and quantified against a standard curve via LC-MS analysis.

With `CCS(=O)(=O)N1[C@@H]2CCC[C@H]1C[C@H](N(C)c1nc(CO)c(F)c(Nc3cc(C)[nH]n3)n1)C2` [Compound (I), (2-(((1R,3s,5S)-9-(ethylsulfonyl)-9-azabicyclo[3.3.1]nonan-3-yl)(methyl)amino)-5-fluoro-6-((5-methyl-1H-pyrazol-3-yl)amino)pyrimidin-4-yl)methanol] the pCC15 [1] was 5.36, the IC50 [2] was 5.01 nM and the “concentration at which recovery of IL-22 suppressed Filaggrin expression was observed” value [3] was under 1 µM. The “plasma exposure (below the limit of quantitation)” value [4] was under 0.001 µg/mL.
